# Measurements published in patent US9499550B2 (BRISTOL-MYERS SQUIBB COMPANY, priority 2012, dated 2016).
# Where two headings read alike, the source gives them in different places.
# Key:
# [1] = test system: HCV genotype 1a (H77 strain) replicon in HUH-7 cells; test: HCV replicon luciferase reporter assay, genotype 1a; format: cell-based; details: Hepatitis C virus, Huh-7, 72 h, 3 days incubation, read-out: LE_1a (EC50, range)
# Method in brief: (§1)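 Replicon inhibition for both genotypes was measured as Renilla luciferase signal (EnduRen, 7.5 μM final, 2 h) after 3-day, 37° C exposure of replicon-bearing HUH-7 cells in 4% FCS DMEM, 0.5% DMSO. The 1b construct carries S1179I; the 1a H77 construct carries P1496L and S2204I. Twenty-point, 3-fold dilutions were fitted four-parametrically for EC50, and CC50 was taken from multiplexed Cell Titer-Blue.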
# [2] = test system: HCV genotype 1b (Con1) replicon in HUH-7 cells; test: HCV replicon luciferase reporter assay, genotype 1b; format: cell-based; details: Hepatitis C virus, Huh-7, 72 h, 3 days incubation, read-out: LE_1b (EC50, range)
# Method in brief: as §1
# [3] = HCV genotype 1a replicon luciferase assay, range class
# [4] = HCV genotype 1b replicon luciferase assay, range class
# [5] = HCV genotype 1a replicon luciferase
# [6] = HCV genotype 1b replicon luciferase
Compound,"EC50 [1, 3]","EC50 [2, 4]","EC50 [1, 5]","EC50 [2, 6]"
"COc1ccc2c(O[C@@H]3C[C@H]4C(=O)N[C@]5(C(=O)NS(=O)(=O)C6(C)CC6)C[C@H]5/C=C\CC[C@@H](C)C[C@@H](C)[C@H](NC(=O)OC(C)(C)C)C(=O)N4C3)nc(-c3ccc(OC(C)C)cc3)nc2c1 [Compound 3008, tert-butyl ((2R,6S,7R,9R,13aS,14aR,16aS,Z)-2-((2-(4-isopropoxyphenyl)-7-methoxyquinazolin-4-yl)oxy)-7,9-dimethyl-14a-(((1-methylcyclopropyl)sulfonyl)carbamoyl)-5,16-dioxo-1,2,3,5,6,7,8,9,10,11,13a,14,14a,15,16,16a-hexadecahydrocyclopropa[e]pyrrolo[1,2-a][1,4]diazacyclopentadecin-6-yl)carbamate]",< 5.46 nM,< 5.46 nM,–,–
"C[C@@H]1CC/C=C\[C@@H]2C[C@@]2(C(=O)NS(=O)(=O)C2(C)CC2)NC(=O)[C@@H]2C[C@@H](Oc3nccc4c5c(ccc34)CCCO5)CN2C(=O)[C@@H](NC(=O)OC(C)(C)C(F)(F)F)[C@H](C)C1 [Compound 6058, 1,1,1-trifluoro-2-methylpropan-2-yl((2R,6S,7R,9R,13aS,14aR,16aS,Z)-2-((3,4-dihydro-2H-pyrano[2,3-f]isoquinolin-7-yl)oxy)-7,9-dimethyl-14a-(((1-methylcyclopropyl)sulfonyl)carbamoyl)-5,16-dioxo-1,2,3,5,6,7,8,9,10,11,13a,14,14a,15,16,16a-hexadecahydrocyclopropa[e]pyrrolo[1,2-a][1,4]diazacyclopentadecin-6-yl)carbamate]",–,–,1.01 to 5 nM,0.51 to 1 nM
"CC(C)Oc1cc2ccccc2c(O[C@@H]2C[C@H]3C(=O)N[C@]4(C(=O)NS(=O)(=O)C5(C)CC5)C[C@H]4/C=C\CC[C@@H](C)C[C@@H](C)[C@H](NC(=O)OC(C)(C)C)C(=O)N3C2)n1 [Compound 6098, tert-butyl ((2R,6S,7R,9R,13aS,14aR,16aS,Z)-2-((3-isopropoxyisoquinolin-1-yl)oxy)-7,9-dimethyl-14a-(((1-methylcyclopropyl)sulfonyl)carbamoyl)-5,16-dioxo-1,2,3,5,6,7,8,9,10,11,13a,14,14a,15,16,16a-hexadecahydrocyclopropa[e]pyrrolo[1,2-a][1,4]diazacyclopentadecin-6-yl)carbamate]",–,–,0.51 to 1 nM,0.1 to 0.5 nM
"COc1cnc(O[C@@H]2C[C@H]3C(=O)N[C@]4(C(=O)NS(=O)(=O)C5(CF)CC5)C[C@H]4/C=C\CC[C@@H](C)C[C@@H](C)[C@H](NC(=O)OC(C)(C)C(F)(F)F)C(=O)N3C2)c2ccc(N(C)C)cc12 [Compound 3144, 1,1,1-trifluoro-2-methylpropan-2-yl((2R,6S,7R,9R,13aS,14aR,16aS,Z)-2-((6-(dimethylamino)-4-methoxyisoquinolin-1-yl)oxy)-14a-(((1-(fluoromethyl)cyclopropyl)sulfonyl)carbamoyl)-7,9-dimethyl-5,16-dioxo-1,2,3,5,6,7,8,9,10,11,13a,14,14a,15,16,16a-hexadecahydrocyclopropa[e]pyrrolo[1,2-a][1,4]diazacyclopentadecin-6-yl)carbamate]",< 5.46 nM,< 5.46 nM,–,–
"C[C@@H]1CC/C=C\[C@@H]2C[C@@]2(C(=O)NS(=O)(=O)C2(C)CC2)NC(=O)[C@@H]2C[C@@H](Oc3ncc(OCC(F)F)c4ccccc34)CN2C(=O)[C@@H](NC(=O)OC(C)(C)C)[C@H](C)C1 [Compound 1026, tert-butyl ((2R,6S,7R,9R,13aS,14aR,16aS,Z)-2-((4-(2,2-difluoroethoxyl)isoquinolin-1-yl)oxy)-7,9-dimethyl-14a-(((1-methylcyclopropyl)sulfonyl)carbamoyl)-5,16-dioxo-1,2,3,5,6,7,8,9,10,11,13a,14,14a,15,16,16a-hexadecahydrocyclopropa[e]pyrrolo[1,2-a][1,4]diazacyclopentadecin-6-yl)carbamate]",< 5.46 nM,< 5.46 nM,–,–
